Measured values from patent US9493468B2, “Antifungal 5,6-dihydro-4H-pyrrolo[1,2-a][1,4]benzo-diazepines and 6H-pyrrolo[1,2-a][1,4]benzodiazepines substituted with heterocyclic derivatives” (Janssen Pharmaceutica NV, priority 2011, dated 2016).

How the values were obtained:
Format in all cases: cell-based
Aspergillus fumigatus = test: Antifungal activity in vitro, resazurin growth inhibition: Aspergillus fumigatus (B42928); settings: for IC50: read-out: Inf. E: Aspergillus fumigatus B42928 pIC50 (converted)
In short: (§1)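 Broth microdilution: RPMI-1640/L-Gln/2% glucose, MOPS pH 7.0±0.1; 10^3 cfu/well; top concentration 64 μM, 2- or 4-fold steps. Dermatophytes at 27° C., one week or more. Resazurin 0.005% (w/v) added, fluorescence 550/590 nm.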

Cryptococcus neoformans = test: Antifungal activity in vitro, resazurin growth inhibition: Cryptococcus neoformans (B66663); settings: for IC50: read-out: Inf. F: Cryptococcus neoformans B66663 pIC50 (converted)
In short: as §1

Candida parapsilosis = test: Antifungal activity in vitro, resazurin growth inhibition: Candida parapsilosis (B66126); settings: for IC50: Lodderomyces parapsilosis, read-out: Inf. D: Candida parapsilosis B66126 pIC50 (converted)
In short: as §1

Trichophyton rubrum = test: Antifungal activity in vitro, resazurin growth inhibition: Trichophyton rubrum (B68183); settings: for IC50: read-out: Inf. C: Trichophyton rubrum B68183 pIC50 (converted)
In short: as §1

Microsporum canis = test: Antifungal activity in vitro, resazurin growth inhibition: Microsporum canis (B68128); settings: for IC50: read-out: Inf. B: Microsporum canis B68128 pIC50 (converted)
In short: as §1

[1] = system: Trichophyton mentagrophytes; test: Antifungal activity in vitro, resazurin growth inhibition: Trichophyton mentagrophytes (B70554); settings: for IC50: read-out: Inf. G: Trichophyton mentagrophytes B70554 pIC50 (converted)
In short: as §1

Sporothrix schenkii = test: Antifungal activity in vitro, resazurin growth inhibition: Sporothrix schenkii (B62482); settings: for IC50: read-out: Inf. A: Sporothrix schenkii B62482 pIC50 (converted)
In short: as §1

Scedosporium apiospermum = test: Antifungal activity in vitro, resazurin growth inhibition: Scedosporium apiospermum (IHEM3817); settings: for IC50: read-out: Inf. H: Scedosporium apiospermum IHEM3817 pIC50 (converted)
Description: (§2) The standard susceptibility screen is performed in 96-well plates (U-bottom, Greiner Bio-One). Serial dilutions (2-fold or 4-fold) of 20 mM compound stock solutions are made in 100% DMSO, followed by an intermediate dilution step in water. These serial dilutions (10 μl) are then spotted onto test-plates that can be stored in the dark at 4° C. for a maximum period of 2 weeks. An adequate broad dose-range is included with 64 μM as the highest in-test concentration. The culture medium RPMI-1640 is supplemented with L-glutamine, 2% glucose and buffered with 3-(N-morpholino)-propanesulfonic acid (MOPS) at pH 7.0±0.1.
(§3) The different fungal species/isolates (Table 3a) are cryopreserved and 1/1000 diluted in medium just prior to use. A standard inoculum of 200 μl containing 10^3 colony-forming unit (cfu) is then added to each well. A positive control (100% growth=fungal culture without antifungal) and a negative control (0% growth ═RPMI-MOPS medium) are included on each plate. Optimal incubation time and temperature are dependent on the fungal species and vary from 24 h for yeasts (37° C.) to one week or more for dermatophytes (27° C.). Inhibition of fungal growth is measured after adding 10 μl of 0.005% (w/v) resazurin (Sigma Aldrich) to each well, based on the principle that living cells convert the non-fluorescent blue resazurin into the pink and fluorescent resorufin, allowing fluorimetric reading (λex 550 nm and λem 590 nm) after an additional incubation period (‘resa’ time mentioned in Table 3a).

Scedosporium prolificans = test: Antifungal activity in vitro, resazurin growth inhibition: Scedosporium prolificans (IHEM21157); settings: for IC50: Lomentospora prolificans, read-out: Inf. I: Scedosporium prolificans IHEM21157 pIC50 (converted)
Description: as §2, §3

Row | Compound | Inf. E: Aspergillus fumigatus B42928, pIC50 (Aspergillus fumigatus) | Inf. F: Cryptococcus neoformans B66663, pIC50 (Cryptococcus neoformans) | Inf. D: Candida parapsilosis B66126, pIC50 (Candida parapsilosis) | Inf. C: Trichophyton rubrum B68183, pIC50 (Trichophyton rubrum) | Inf. B: Microsporum canis B68128, pIC50 (Microsporum canis) | Inf. G: Trichophyton mentagrophytes B70554, pIC50 [1] | Inf. A: Sporothrix schenkii B62482, pIC50 (Sporothrix schenkii) | Inf. H: Scedosporium apiospermum IHEM3817, pIC50 (Scedosporium apiospermum) | Inf. I: Scedosporium prolificans IHEM21157, pIC50 (Scedosporium prolificans) | IC50 (Aspergillus fumigatus) [nM] | IC50 (Scedosporium apiospermum) [nM] | IC50 (Cryptococcus neoformans) [nM] | IC50 (Candida parapsilosis) [nM] | IC50 (Trichophyton rubrum) [nM] | IC50 (Scedosporium prolificans) [nM] | IC50 (Microsporum canis) [nM] | IC50 [1] [nM] | IC50 (Sporothrix schenkii) [nM]
1 | c1ccc2c(c1)CN=C(c1ccc3ncsc3c1)c1cccn1-2 [Compound 182] | 4.94 | 4.91 | 4.58 | 6.70 | 5.52 | 5.87 | <4.49 |  |  |  |  |  |  |  |  |  |  | 
2 | Fc1cccc2c1CN=C(c1ccc3scnc3c1)c1cccn1-2 [Compound 189] | 5.02 | 5.06 | <4.19 | 6.05 | 5.29 | 5.52 | <4.19 |  |  |  |  |  |  |  |  |  |  | 
3 | Fc1cc(F)c2c(c1)-n1cccc1C(c1ccc3scnc3c1)=NC2 [Compound 190] | <4.19 | 4.93 | <4.19 | 6.14 | 5.56 | 5.31 | <4.19 |  |  |  |  |  |  |  |  |  |  | 
4 | Fc1cccc2c1CN=C(c1ccc3sc(C(F)(F)F)nc3c1)c1cccn1-2 [Compound 192] | <4.19 | 4.81 | <4.19 | 4.29 | <4.19 | 5.03 | <4.19 |  |  |  |  |  |  |  |  |  |  | 
5 | FC(F)(F)c1nc2cc(C3=NCc4c(Cl)cccc4-n4cccc43)ccc2s1 [Compound 193] | <4.19 | <4.19 | <4.19 | <4.19 | <4.19 | <4.19 | <4.19 |  |  |  |  |  |  |  |  |  |  | 
6 | Clc1cccc2c1CN=C(c1ccc3nsnc3c1)c1cccn1-2 [Compound 194] | <4.19 | <4.19 | <4.19 | 6.82 | <4.19 | 6.06 | <4.19 |  |  |  |  |  |  |  |  |  |  | 
7 | Clc1cccc2c1CN=C(c1ccc3snnc3c1)c1cccn1-2 [Compound 195] | <4.19 | <4.19 | <4.19 | 6.34 | <4.19 | <4.19 | <4.19 |  |  |  |  |  |  |  |  |  |  | 
8 | Clc1cccc2c1CN=C(c1ccc3ccccc3n1)c1cccn1-2 [Compound 197] | <4 | 5.00 | 4.00 | 6.00 | 6.00 | 5.33 | 5.00 | <4 | 5.00 |  |  |  |  |  |  |  |  | 
9 | Clc1cccc2c1CN=C(c1ccncc1)c1cccn1-2 [Compound 198] | <4 | 5.00 | <4 | <4 | 4.00 | <4 | <4 | <4 | <4 |  |  |  |  |  |  |  |  | 
10 | Clc1cccc2c1CN=C(c1cccnc1)c1cccn1-2 [Compound 199] | <4 | 5.00 | <4 | 5.00 | 4.50 | <4 | <4 | <4 | <4 |  |  |  |  |  |  |  |  | 
11 | Clc1cccc2c1CN=C(c1cnc3ccccc3c1)c1cccn1-2 [Compound 201] |  |  |  |  |  |  |  |  |  | > 100000 | > 100000 | > 100000 | > 100000 | 1000 | 100 | 1000 | > 100000 | > 100000
12 | c1ccc2c(c1)CN=C(c1cnc3ccccc3c1)c1cccn1-2 [Compound 202] |  |  |  |  |  |  |  |  |  | 2140 | 10000 | 10000 | > 100000 | 100 | 100 | 10 | 468 | 1000
13 | Clc1ccc2c(c1)-n1cccc1C(c1ccncc1)=NC2 [Compound 203] | <4 | <4 | <4 | 4.67 | 4.50 | <4 | <4 | <4 | <4 |  |  |  |  |  |  |  |  | 
14 | Clc1ccc2c(c1)-n1cccc1C(c1ccc3nc[nH]c3c1)=NC2 [Compound 204] | <4 | <4 | <4 | 4.67 | 4.50 | <4 | <4 | <4 | <4 |  |  |  |  |  |  |  |  | 
